{"source": "patent US6756063B2", "about": "“Methods and compositions for the treatment of human and animal cancers” (Zoltan Laboratories, LLC, priority 2001, dated 2004)", "key": {"[1]": {"test_system": "MDA-MB-231, human mammary gland (epithelial) adenocarcinoma, estrogen receptor negative", "test": "Cell killing in MDA-MB-231", "format": "cell-based", "conditions": "for effectiveness of compositions comprising another dithiocarbonyl compared with PDC: same conditions as the PDC compositions", "method": "(§1) To determine the effects of the present compositions, cells were grown in the indicated medium in either 12-well plates (to assess morphological changes and measure DNA synthesis); 6-well plates (for determination of apoptosis/necrosis); or 96-well plates (for determination of cellular proliferation by the MTT assay). All media contained 10% fetal bovine serum. In each experiment, the medium was replaced with fresh medium at 2 h. prior to treatment. Treatments were performed with sterile solutions of the compositions (made up either in the respective medium or water) for 1 min.-72 h. In some cases, treatments were done for 1 min., followed by incubation of washed cells for various time periods.\n(§2) Cells were cultured in Leibovitz's L-15 cell culture medium (Gibco) and 10% fetal bovine serum; the medium was changed 6 h. prior to treatment. […] For DNA synthesis experiments, cells were incubated with [^3H]-thymidine (1 μCi/ml) between 40-50 mins. of treatment; for cell proliferation experiments, cells were trypsinized after treatment, re-plated, and viable cells counted 1 week later."}, "[2]": {"test_system": "MDA-MB-468, human mammary gland (epithelial) adenocarcinoma, estrogen receptor negative", "test": "Cell killing in MDA-MB-468", "format": "cell-based", "conditions": "in the above experiments", "method": "as §1\nas §2, with “L-15” for “L-15 cell culture”, “medium” for “medium (Gibco)”, “120-130” for “40-50”"}, "[3]": {"test_system": "T-47D, human mammary gland (epithelial) ductal carcinoma, estrogen receptor positive", "test": "Cell killing in T-47D", "format": "cell-based", "method": "as §1\nas §2, with “modified RPMI 1640” for “Leibovitz's L-15”, “(see Gibco Catalogue), with 2 mM L-glutamine, 10 mM Hepes, 1 mM sodium pyruvate, 4.5 g/L glucose, 1.5 g/L sodium bicarbonate, 0.2 I.U. bovine insulin/ml,” for “(Gibco)”, “120-130” for “40-50”, “replated,” for “re-plated,”"}, "[4]": {"test_system": "ZR-75-1, human mammary gland (epithelial) ductal carcinoma, ascites, estrogen receptor positive", "test": "Cell killing in ZR-75-1", "format": "cell-based", "method": "as §1\nZR-75-1, human mammary gland (epithelial) ductal carcinoma, ascites, estrogen receptor positive. Cells were cultured in modified RPMI 1640 medium with 2 mM L-glutamine, 10 mM Hepes, 1 mM sodium pyruvate, 4.5 g/L glucose, 1.5 g/L sodium bicarbonate, 0.2 I.U. bovine insulin/ml, and 10% fetal bovine serum; the medium was changed 6 h. prior to treatment. […] For DNA synthesis experiments, cells were incubated with [^3H]-thymidine (1 μCi/ml) between 120-130 mins. of treatment; for cell proliferation experiments, cells were trypsinized after treatment, re-plated, and viable cells counted 1 week later."}, "[5]": {"test_system": "MCF-7, human breast carcinoma cells, estrogen receptor positive", "test": "Cell killing in MCF-7", "format": "cell-based", "conditions": "in the above experiments", "method": "as §1\nCells were cultured in Dulbecco's modified Eagle's medium containing 2 mM L-glutamine and 10% fetal calf serum; the medium was changed 2 h prior to treatments. […] For DNA synthesis experiments, cells were incubated with [^3H]-thymidine ([…]) between 120-130 min of treatment; for cell proliferation experiments, cells were trypsinized after treatment, re-plated, and viable cells counted 1 week later."}, "[6]": {"test_system": "T-47D, 2R-75-1, A431, MDA-MB-231, AN3Ca, CaOV3", "test": "Proliferation of cancer cell lines", "format": "cell-based"}, "normal cells": {"test_system": "normal cells", "test": "Proliferation of normal cells", "format": "cell-based"}, "BDF1 adult female mice": {"test_system": "BDF1 adult female mice", "test": "In vivo acute toxicological investigation, intraperitoneal", "conditions": "alone, 0.5-2 mM in physiological saline, followed 21 days", "method": "Specified pathogen free (SPF) hygienic category first generation hybrid BDF1 (C57B1 female×DBA/2 male) adult female mice weighing 22-23 g were used. The animals were kept in macrolon cages at 22-24 C (45-55% humidity), with a lighting regimen of 12/12 h light/dark.\nThe animals were followed for 21 days and evaluated based on survival and body weight. Seven animals were evaluated for each treatment."}, "[7]": {"conditions": "components at 50 μM PDC, 120 μM Zn, 100 μM EA, 3 mM DMETN, 2 h"}}, "data": [{"smiles": "S=C(S)OC1CC2CC1C1CCCC21", "note": "(stereo not shown) [Composition D609]", "values": [{"measurement": "effectiveness of compositions comprising another dithiocarbonyl compared with PDC", "setting": "[1]", "result": "as effective as compositions comprising PDC"}, {"measurement": "effectiveness of compositions comprising another dithiocarbonyl compared with PDC", "setting": "[2]", "result": "as effective as those comprising PDC"}, {"measurement": "effectiveness of compositions comprising another dithiocarbonyl compared with PDC", "setting": "[3]; in the above experiments", "result": "as effective as those comprising PDC"}, {"measurement": "effectiveness of compositions comprising another dithiocarbonyl compared with PDC", "setting": "[4]; in the above experiments", "result": "as effective as those comprising PDC"}, {"measurement": "effectiveness of compositions comprising another dithiocarbonyl compared with PDC", "setting": "[5]", "result": "as effective as those comprising PDC"}]}, {"smiles": "CN(C)CCO", "note": "[DMETN, dimethylethanolamine]", "values": [{"measurement": "proliferation of cancer cell lines", "setting": "[6]", "result": "inhibits proliferation"}, {"measurement": "proliferation of normal cells", "setting": "normal cells", "result": "generally increasing proliferation"}]}, {"smiles": "C=C(CC)C(=O)c1ccc(OCC(=O)O)c(Cl)c1Cl", "note": "[EA, ethacrynic acid]", "values": [{"measurement": "cells killed", "setting": "[1]; 60 μM EA alone, after 3 h", "result": "about 100%"}, {"measurement": "cells killed", "setting": "[1]; components at 25 μM PDC, 60 μM Zn, 60 μM EA, 3 mM DMETN, 40 min", "result": "about 70%"}, {"measurement": "cells killed", "setting": "[3]; [7]", "result": "about 100%"}, {"measurement": "cells killed", "setting": "[4]; [7]", "result": "about 100%"}, {"measurement": "acute toxicity (survival and body weight)", "setting": "BDF1 adult female mice", "result": "not toxic"}]}, {"smiles": "CCN(CC)C(=S)SSC(=S)N(CC)CC", "note": "[disulfuram, tetraethylthiuram disulfide]", "values": [{"measurement": "effectiveness of compositions comprising another dithiocarbonyl compared with PDC", "setting": "[1]", "result": "as effective as compositions comprising PDC"}]}]}
